From patent US3997506A (priority 1974, dated 1976)
Where two headings read alike, the source gives them in different places.

What was measured:
in vitro = assay type: cell-based, human; details: human, leucocytes, Culture II, read-out: % of dead cells
Method: (§1) The cytotoxicity has been investigated on human leucocytes by means of the viability test with Trypan blue.
(§2) a. In a first experimentation cultures of leucocytes of a voluntary […] were prepared and caused to undergo incubation with phytohemagglutinin (PHA) and with different concentrations of colchicine or of its derivative (C1 = 2.5 μg/ml of culture, C3 = 10 μg/ml, C5 = 30 μg/ml, C6 = 50 μg/ml). Leucocytes only containing PHA served as controls.
(§3) After 3, 42, 68 and 72 hours of incubation a sample of each culture was contacted by a drop of Trypan blue and laid on a slide of a microscope. Then took place the counting of the dead cells (those with assumed an […] colour) and of all the cells present on the slide in order to obtain the ratio of the number of dead cells to the total number of cells. The results expressed as a rate in per cent are shown in the accompanying table 8.
(§4) b. After the experimentation which has just been described, the study of cytotoxicity has been continued with two other samples of human leucocytes still by means of the viability test with Trypan blue.
(§5) C1 = 2.5 μg/ml of culture
(§6) C6 = 50 μg/ml of culture;
(§7) and for the carboxy-1-adamantane fraction to:
(§8) C3 = 4.5 μg/ml of culture
(§9) C6 = 22.5 μg/ml of culture.
(§10) Leucocytes only containing phytohemagglutinin and others containing phytohemagglutinin and 50 μl of methanol served as controls.
(§11) The percentage of dead cells was determined after different numbers of hours of incubation.

human leucocytes [1] = assay: in vitro; assay type: cell-based; details: Cultures I and II
Method: as §1, §2, §3, §4, §5, §6, §7, §8, §9, §10, §11

human leucocytes [2] = details: Table 11; for Count of leucocytes after 72 hours: Culture II
[3] = carboxy-1-adamantane C3 = 4.5 μg/ml
[4] = carboxy-1-adamantane C6 = 22.5 μg/ml

`O=C(O)C12CC3CC(CC(C3)C1)C2` [carboxy-1-adamantane] gave a cytotoxicity at 23 h (in vitro; [3]) of 18%, a cytotoxicity at 23 h (in vitro; [4]) of 14% and a cytotoxicity at 46 h (in vitro; [3]) of 12%. It also gave a cytotoxicity at 46 h (in vitro; [4]) of 10%, a cytotoxicity at 72 h (in vitro; [3]) of 25% and a cytotoxicity at 72 h (in vitro; [4]) of 25%. For the same compound, the “cytotoxicity, cultures I and II (in words)” value (human leucocytes [1]) was “no effect until 46 hours of incubation”, the “Count of leucocytes after 72 hours” value (human leucocytes [2]; [3]) was 215,000 and the “Count of leucocytes after 72 hours” value (human leucocytes [2]; [4]) was 230,000. The “number of leucocytes in absence or presence of substance (in words)” value (human leucocytes [2]; very approximative) was “remain substantially the same”.
